“Also recorded” adds a separate entry of the source.
Assays:
[1] = biological target: T1, Angiotensin II receptor (isolated rat aorta) (Rattus norvegicus, UniProt P25095); assay: Isolated rat aorta, contractile force; cumulative angiotensin II dose-response curves with and without antagonist pretreatment; conditions: dose/effect curve of angiotensin II; FIG. 1, FIG. 2
T1 construct: isolated rat aorta; from tissue; host or cells: isolated rat aorta
T1 sequence (P25095 1-359): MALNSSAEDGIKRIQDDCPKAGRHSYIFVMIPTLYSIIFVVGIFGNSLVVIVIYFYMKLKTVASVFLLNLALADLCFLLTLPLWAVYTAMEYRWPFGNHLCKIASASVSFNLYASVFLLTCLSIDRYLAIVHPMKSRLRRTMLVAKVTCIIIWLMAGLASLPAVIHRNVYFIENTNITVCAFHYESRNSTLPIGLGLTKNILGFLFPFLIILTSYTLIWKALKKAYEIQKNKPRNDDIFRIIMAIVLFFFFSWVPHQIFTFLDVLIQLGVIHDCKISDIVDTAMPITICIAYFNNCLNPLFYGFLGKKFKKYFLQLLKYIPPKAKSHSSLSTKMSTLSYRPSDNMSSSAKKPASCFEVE
Protocol: 1 or DuP 753 (10-8, 10^-7, 10^-6 mol/1, each) and results were expressed as percentage of maximum contraction obtained by addition of 10^-5 mol/1 noradrenaline.
EP50 -values and pA2 -values were determined arithmetically.
FIG. 1 Isolated rat aorta contractile force of subst. 1
FIG. 2 Isolated rat aorta contractile force of DuP 753

[2] = test system: angiotensin II induced increases in mean arterial blood pressure; assay: Anaesthetized normotensive rat: angiotensin II induced increases in mean arterial blood pressure after intraduodenal administration; conditions: FIG. 3
Protocol: b) anaesthetized normotensive rat: Angiotension II (1 /ug/kg i.v.) was given before as well as in 15 minutes intervals after intraduodenal administration of the drugs.
FIG. 3 The effects of DuP 753 and Subst. 1 on angiotension II induced increases in mean arterial bloodpessure in normotensive anaesthetized rats (n=4)

[3] = cited from earlier work
[4] = test system: angiotensin II receptor; conditions: Wong et al., 1990, JPET 255, 211-217; cited from earlier work

Structure (SMILES) | mode of antagonism in vitro [1] | duration of action in vivo ([2]; DuP 753 compared with the substances according to the invention) | conversion into active non-competitive metabolite in vivo ([2]; concluded from duration of action) | metabolic conversion in vivo ([3]; literature) | mode of angiotensin II receptor antagonism [4] | contribution of metabolite to duration of action of DuP 753 ([3]; in vivo, Wong et al., 1990)
CCCCc1nc(Cl)c(CO)n1Cc1ccc(-c2ccccc2-c2nn[nH]n2)cc1 [DuP 753, 2-n-butyl-4-chloro-5-hydroxymethyl-1-((2'-(1-H-tetrazol-5-yl)biphenyl-4-yl)methyl)imidazole] | acts competitively in experiments in vitro | longer duration of action | conversion into an active non-competitive metabolite is detectable | converted into a non-competitive metabolite, EXP 3174 |  | 
CCCCc1nc(Cl)c(C(=O)O)n1Cc1ccc(-c2ccccc2-c2nnn[nH]2)cc1 [EXP 3174, 2-n-butyl-4-chloro-1-((2'-(1H-tetrazol-5-yl)biphenyl-4-yl)methyl)-imidazole-5-carboxylic acid] |  |  |  |  | non-competitive irreversible angiotensin II receptor antagonist | responsible for the long duration of action; also recorded: largely responsible for the duration of action of DuP 753
